Molecules are shown by their SMILES.

EC50, ED50 and ID50 data for four compounds are collected here from ChEMBL document CHEMBL1121945, “Nitrogen bridgehead compounds. 18. New antiallergic 4H-pyrido[1,2-a]pyrimidin-4-ones. 1” (J Med Chem, 1982).

The species named for test [1] is Rattus norvegicus. Put plainly: The compound was tested for its ability to inhibit histamine release from sensitized rat mast cells in vitro. The test is classed as functional, cell-based.
Test [2] has as its system Rattus norvegicus. Put plainly: Inhibition of rat passive cutaneous anaphylaxis (PCA) reaction was determined after oral administration. The format is functional. Conditions: read-out: ID50 (the source's name).
In test [3] the test system is Rattus norvegicus. Briefly: Inhibition of rat passive cutaneous anaphylaxis (PCA) reaction after intravenous administration. The format is functional. Conditions: for ED50: Rattus norvegicus, iv, read-out: ID50 (the source's name).
The species entered for test [4] is Rattus norvegicus. Put plainly: Inhibition of histamine release from sensitized rat mast cells in vitro. The test is classed as functional. Conditions: mast cells.

As to `CC1CC/C(=N\Nc2ccc(Cl)cc2)c2ncc(C(=O)O)c(=O)n21` (stereo unspecified), the EC50 in the test listed under Rattus norvegicus [1] (Mast cell) came to 16.6 µM. Besides, the values for the ED50 in the test on Rattus norvegicus [2] and in the test with Rattus norvegicus [3] were greater than 100 µmol/kg and 0.5 µmol/kg, respectively.

Regarding `CC1CC/C(=N\Nc2cccc(C(=O)O)c2)c2ncc(C(=O)O)c(=O)n21` (stereo unspecified), the EC50 in the test filed under Rattus norvegicus [1] (Mast cell) was determined as 10 µM. Besides, the ED50 in the test on Rattus norvegicus [2] (Rattus norvegicus, po) is greater than 100 µmol/kg; in the test on Rattus norvegicus [3], 26.6 µmol/kg.

Regarding `CC1CCC(=NNc2ccccc2C(=O)O)c2ncc(C(=O)O)c(=O)n21` (stereo in doubt; 56), the EC50 in the test listed under Rattus norvegicus [1] is recorded as 1300 uM l-1. The same compound came in with an ID50 in the test with Rattus norvegicus [3] of 0.48 µM/kg.

With `CC1CCC(=NNc2ccccc2C(=O)O)c2ncc(C(=O)O)c(=O)n21` (stereo in doubt; 57), the EC50 in the test listed under Rattus norvegicus [4] was determined as 569 uM l-1. Further, in the test with Rattus norvegicus [2] (Rattus norvegicus, po), the ED50 was greater than 100 µmol/kg. The ID50 in the test on Rattus norvegicus [3] was found to be 0.5 µM/kg.
